≈ marks a conversion by molar mass, not a printed value. Read-outs that look alike come from different tables or passages of the source.
Experiments:
[1] = Equilibrium (apparent) solubility of APR, shake flask method; type: physicochemical; details: for solubility at 24 h: thermodynamic from solid
Description: The solubility of APR in various buffers, oils, surfactants, cosurfactants, cosolvents, and formulations was measured using the shake flask method. Briefly, an excess APR was added into a polypropylene tube that contains a medium. Tube mixed by a vortex (Daihan VM-10, South Korea) for 1 min to disperse APR. Mixtures were shaken at 100 rpm for 24 h at various temperatures in a thermostatically controlled shaking water bath (Nüve ST30, Turkey). Mixtures were then centrifuged at 13,500 rpm (12,225× g) for 15 min. The supernatant samples were suitably diluted with the mobile phase. Drug concentration was obtained via the validated HPLC method.
Saturated SNEDDS were prepared by adding excess APR into blank preconcentrates and then precipitate the insoluble part of APR. Briefly, SNEDDS and excess APR mixtures were shaken at 100 rpm for 24 h at 37 °C in a shaking water bath. Mixtures were then centrifuged at 13,500 rpm (12,225× g) for 15 min. The supernatant was separated carefully to obtain saturated SNEDDS.

[2] = cited from earlier work
[3] = cited from earlier work; remark: listed apart in the source

- solubility at 24 h ([1]; 37 °C, organic solvent or mixture, Imwitor 988:Kolliphor RH40:Transcutol P (%) 20:60:20, 37 °C, read-out: APR solubility (loading capacity of SNEDDS preconcentrate)): 21600 µg/mL (≈ 40.5 mM)
- solubility at 24 h ([1]; 37 °C, organic solvent or mixture, Imwitor 988:Kolliphor RH40:Transcutol P (%) 30:10:60, 37 °C, read-out: APR solubility (loading capacity of SNEDDS preconcentrate)): 55300 µg/mL (≈ 104 mM)
- solubility at 24 h ([1]; Brij O10 (surfactant), 25 °C, aqueous with cosolvent or surfactant or cyclodextrin, surfactant Brij O10, 25 °C, read-out: APR solubility): 9870 µg/mL (≈ 18.5 mM)
- solubility at 24 h ([1]; Capryol 90 (cosurfactant), 25 °C, organic solvent or mixture, cosurfactant Capryol 90, 25 °C, read-out: APR solubility): 17000 µg/mL (≈ 31.8 mM)
- solubility at 24 h ([1]; Castor oil (oily excipient), 25 °C, oil or lipid, oily excipient Castor oil, 25 °C, read-out: APR solubility): 2920 µg/mL (≈ 5.47 mM)
- solubility at 24 h ([1]; Cinnamon oil (oily excipient), 25 °C, oil or lipid, oily excipient Cinnamon oil, 25 °C, read-out: APR solubility): 8470 µg/mL (≈ 15.8 mM)
- solubility at 24 h ([1]; Eucalyptus oil (oily excipient), 25 °C, oil or lipid, oily excipient Eucalyptus oil, 25 °C, read-out: APR solubility): 6840 µg/mL (≈ 12.8 mM)
- solubility at 24 h ([1]; Glycerine (cosolvent), 25 °C, organic solvent or mixture, cosolvent Glycerine, 25 °C, read-out: APR solubility): 13 µg/mL (≈ 0.0243 mM)
- solubility at 24 h ([1]; Imwitor 988 (oily excipient), 25 °C, oil or lipid, oily excipient Imwitor 988, 25 °C, read-out: APR solubility): 19800 µg/mL (≈ 37 mM)
- solubility at 24 h ([1]; Kolliphor ELP (surfactant), 25 °C, aqueous with cosolvent or surfactant or cyclodextrin, surfactant Kolliphor ELP, 25 °C, read-out: APR solubility): 4230 µg/mL (≈ 7.92 mM)
- solubility at 24 h ([1]; Kolliphor HS15 (surfactant), 25 °C, aqueous with cosolvent or surfactant or cyclodextrin, surfactant Kolliphor HS15, 25 °C, read-out: APR solubility): 7160 µg/mL (≈ 13.4 mM)
- solubility at 24 h ([1]; Kolliphor RH40 (surfactant), 25 °C, aqueous with cosolvent or surfactant or cyclodextrin, surfactant Kolliphor RH40, 25 °C, read-out: APR solubility): 8980 µg/mL (≈ 16.8 mM)
- solubility at 24 h ([1]; Kollisolv GTA (oily excipient), 25 °C, oil or lipid, oily excipient Kollisolv GTA, 25 °C, read-out: APR solubility): 3150 µg/mL (≈ 5.89 mM)
- solubility at 24 h ([1]; Kollisolv P124 (surfactant), 25 °C, aqueous with cosolvent or surfactant or cyclodextrin, surfactant Kollisolv P124, 25 °C, read-out: APR solubility): 10700 µg/mL (≈ 20 mM)
- solubility at 24 h ([1]; Labrafac PG (oily excipient), 25 °C, oil or lipid, oily excipient Labrafac PG, 25 °C, read-out: APR solubility): 427 µg/mL (≈ 0.799 mM)
- solubility at 24 h ([1]; Labrafac lipophile WL 1349 (oily excipient), 25 °C, oil or lipid, oily excipient Labrafac lipophile WL 1349, 25 °C, read-out: APR solubility): 282 µg/mL (≈ 0.528 mM)
- solubility at 24 h ([1]; Labrafil M 1944 CS (surfactant), 25 °C, aqueous with cosolvent or surfactant or cyclodextrin, surfactant Labrafil M 1944 CS, 25 °C, read-out: APR solubility): 3500 µg/mL (≈ 6.55 mM)
- solubility at 24 h ([1]; Labrafil M 2125 CS (surfactant), 25 °C, aqueous with cosolvent or surfactant or cyclodextrin, surfactant Labrafil M 2125 CS, 25 °C, read-out: APR solubility): 2840 µg/mL (≈ 5.32 mM)
- solubility at 24 h ([1]; Labrasol (surfactant), 25 °C, aqueous with cosolvent or surfactant or cyclodextrin, surfactant Labrasol, 25 °C, read-out: APR solubility): 15900 µg/mL (≈ 29.8 mM)
- solubility at 24 h ([1]; Lauroglycol 90 (cosurfactant), 25 °C, organic solvent or mixture, cosurfactant Lauroglycol 90, 25 °C, read-out: APR solubility): 9320 µg/mL (≈ 17.4 mM)
- solubility at 24 h ([1]; Lauroglycol FCC (cosurfactant), 25 °C, organic solvent or mixture, cosurfactant Lauroglycol FCC, 25 °C, read-out: APR solubility): 14200 µg/mL (≈ 26.6 mM)
- solubility at 24 h ([1]; Lemon oil (oily excipient), 25 °C, oil or lipid, oily excipient Lemon oil, 25 °C, read-out: APR solubility): 3090 µg/mL (≈ 5.79 mM)
- solubility at 24 h ([1]; Maisine CC (oily excipient), 25 °C, oil or lipid, oily excipient Maisine CC, 25 °C, read-out: APR solubility): 5360 µg/mL (≈ 10 mM)
- solubility at 24 h ([1]; Miglyol 812 (oily excipient), 25 °C, oil or lipid, oily excipient Miglyol 812, 25 °C, read-out: APR solubility): 299 µg/mL (≈ 0.559 mM)
- solubility at 24 h ([1]; Miglyol 840 (oily excipient), 25 °C, oil or lipid, oily excipient Miglyol 840, 25 °C, read-out: APR solubility): 1590 µg/mL (≈ 2.97 mM)
- solubility at 24 h ([1]; Oleic acid (oily excipient), 25 °C, oil or lipid, oily excipient Oleic acid, 25 °C, read-out: APR solubility): 8480 µg/mL (≈ 15.9 mM)
- solubility at 24 h ([1]; Olive Yağı (oily excipient), 25 °C, oil or lipid, oily excipient Olive Yağı, 25 °C, read-out: APR solubility): 181 µg/mL (≈ 0.339 mM)
- solubility at 24 h ([1]; PEG 200 (cosolvent), 25 °C, organic solvent or mixture, cosolvent PEG 200, 25 °C, read-out: APR solubility): 11700 µg/mL (≈ 21.9 mM)
- solubility at 24 h ([1]; PEG 400 (cosolvent), 25 °C, organic solvent or mixture, cosolvent PEG 400, 25 °C, read-out: APR solubility): 12000 µg/mL (≈ 22.5 mM)
- solubility at 24 h ([1]; Peceol (oily excipient), 25 °C, oil or lipid, oily excipient Peceol, 25 °C, read-out: APR solubility): 7780 µg/mL (≈ 14.5 mM)
- solubility at 24 h ([1]; Peppermint oil (oily excipient), 25 °C, oil or lipid, oily excipient Peppermint oil, 25 °C, read-out: APR solubility): 16600 µg/mL (≈ 31 mM)
- solubility at 24 h ([1]; Plurol Oleique CC 497 (cosurfactant), 25 °C, organic solvent or mixture, cosurfactant Plurol Oleique CC 497, 25 °C, read-out: APR solubility): 4140 µg/mL (≈ 7.75 mM)
- solubility at 24 h ([1]; Propylene glycol (cosolvent), 25 °C, organic solvent or mixture, cosolvent Propylene glycol, 25 °C, read-out: APR solubility): 8380 µg/mL (≈ 15.7 mM)
- solubility at 24 h ([1]; Sesame oil (oily excipient), 25 °C, oil or lipid, oily excipient Sesame oil, 25 °C, read-out: APR solubility): 2230 µg/mL (≈ 4.17 mM)
- solubility at 24 h ([1]; Transcutol P (cosolvent), 25 °C, organic solvent or mixture, cosolvent Transcutol P, 25 °C, read-out: APR solubility): 46500 µg/mL (≈ 87 mM)
- solubility at 24 h ([1]; Tween 20 (surfactant), 25 °C, aqueous with cosolvent or surfactant or cyclodextrin, surfactant Tween 20, 25 °C, read-out: APR solubility): 7820 µg/mL (≈ 14.6 mM)
- solubility at 24 h ([1]; Tween 60 (surfactant), 25 °C, aqueous with cosolvent or surfactant or cyclodextrin, surfactant Tween 60, 25 °C, read-out: APR solubility): 5040 µg/mL (≈ 9.44 mM)
- solubility at 24 h ([1]; Tween 80 (surfactant), 25 °C, aqueous with cosolvent or surfactant or cyclodextrin, surfactant Tween 80, 25 °C, read-out: APR solubility): 2140 µg/mL (≈ 4 mM)
- solubility at 24 h ([1]; blank SNEDDS preconcentrate, 37 °C, organic solvent or mixture, Imwitor 988:Kolliphor RH40:Transcutol P (%) 10:30:60, 37 °C, read-out: APR solubility (loading capacity of SNEDDS preconcentrate)): 43100 µg/mL (≈ 80.7 mM)
- solubility at 24 h ([1]; blank SNEDDS preconcentrate, 37 °C, organic solvent or mixture, Imwitor 988:Kolliphor RH40:Transcutol P (%) 10:40:50, 37 °C, read-out: APR solubility (loading capacity of SNEDDS preconcentrate)): 34600 µg/mL (≈ 64.7 mM)
- solubility at 24 h ([1]; blank SNEDDS preconcentrate, 37 °C, organic solvent or mixture, Imwitor 988:Kolliphor RH40:Transcutol P (%) 10:50:40, 37 °C, read-out: APR solubility (loading capacity of SNEDDS preconcentrate)): 26900 µg/mL (≈ 50.4 mM)
- solubility at 24 h ([1]; blank SNEDDS preconcentrate, 37 °C, organic solvent or mixture, Imwitor 988:Kolliphor RH40:Transcutol P (%) 10:60:30, 37 °C, read-out: APR solubility (loading capacity of SNEDDS preconcentrate)): 22900 µg/mL (≈ 42.9 mM)
- solubility at 24 h ([1]; blank SNEDDS preconcentrate, 37 °C, organic solvent or mixture, Imwitor 988:Kolliphor RH40:Transcutol P (%) 10:70:20, 37 °C, read-out: APR solubility (loading capacity of SNEDDS preconcentrate)): 18800 µg/mL (≈ 35.2 mM)
- solubility at 24 h ([1]; blank SNEDDS preconcentrate, 37 °C, organic solvent or mixture, Imwitor 988:Kolliphor RH40:Transcutol P (%) 10:80:10, 37 °C, read-out: APR solubility (loading capacity of SNEDDS preconcentrate)): 15500 µg/mL (≈ 28.9 mM)
- solubility at 24 h ([1]; blank SNEDDS preconcentrate, 37 °C, organic solvent or mixture, Imwitor 988:Kolliphor RH40:Transcutol P (%) 20:10:70, 37 °C, read-out: APR solubility (loading capacity of SNEDDS preconcentrate)): 51000 µg/mL (≈ 95.4 mM)
- solubility at 24 h ([1]; blank SNEDDS preconcentrate, 37 °C, organic solvent or mixture, Imwitor 988:Kolliphor RH40:Transcutol P (%) 20:40:40, 37 °C, read-out: APR solubility (loading capacity of SNEDDS preconcentrate)): 29000 µg/mL (≈ 54.3 mM)
- solubility at 24 h ([1]; blank SNEDDS preconcentrate, 37 °C, organic solvent or mixture, Imwitor 988:Kolliphor RH40:Transcutol P (%) 20:50:30, 37 °C, read-out: APR solubility (loading capacity of SNEDDS preconcentrate)): 23500 µg/mL (≈ 44 mM)
- solubility at 24 h ([1]; blank SNEDDS preconcentrate, 37 °C, organic solvent or mixture, Imwitor 988:Kolliphor RH40:Transcutol P (%) 20:70:10, 37 °C, read-out: APR solubility (loading capacity of SNEDDS preconcentrate)): 15800 µg/mL (≈ 29.6 mM)
- solubility at 24 h ([1]; blank SNEDDS preconcentrate, 37 °C, organic solvent or mixture, Imwitor 988:Kolliphor RH40:Transcutol P (%) 30:20:50, 37 °C, read-out: APR solubility (loading capacity of SNEDDS preconcentrate)): 45100 µg/mL (≈ 84.3 mM)
- solubility at 24 h ([1]; blank SNEDDS preconcentrate, 37 °C, organic solvent or mixture, Imwitor 988:Kolliphor RH40:Transcutol P (%) 30:60:10, 37 °C, read-out: APR solubility (loading capacity of SNEDDS preconcentrate)): 17000 µg/mL (≈ 31.9 mM)
- solubility at 24 h ([1]; buffer pH 1.2, 37 °C, pH 1.2, simulated gastric fluid, buffer pH 1.2, 37 °C, 24 h, read-out: APR solubility): 15.6 µg/mL (≈ 0.0293 mM)
- solubility at 24 h ([1]; buffer pH 4.5, 37 °C, pH 4.5, aqueous buffer, buffer pH 4.5, 37 °C, 24 h, read-out: APR solubility): 0.79 µg/mL (≈ 0.00148 mM)
- APR solubility ([1]; buffer pH 6.8, 37 °C, 24 h): < LOD
- APR solubility ([1]; buffer pH 7.4, 37 °C, 24 h): < LOD
Structure (SMILES): C[C@@H](O[C@H]1OCCN(Cc2nc(=O)[nH][nH]2)[C@H]1c1ccc(F)cc1)c1cc(C(F)(F)F)cc(C(F)(F)F)c1 [APR, 5-(((2R,3S)-2-((1R)-1-(3,5-bis(trifluoromethyl)phenyl)ethoxy)-3-(4-fluorophenyl)4-morpholinyl)methyl)-1,2-dihydro-3H-1,2,4-triazol-3-one]
- mean oral bioavailability ([2]; 80 mg Emend capsule): 67%
- mean oral bioavailability ([2]; 125 mg Emend capsule): 59%
- time to maximum plasma concentration (Tmax) ([2]; in vivo): 4 h
- time of mean peak plasma concentration ([2]; ref 14): approximately 4 h
- solubility in acetonitrile ([3]; acetonitrile): slightly soluble
- logP ([3]; at neutral pH): 4.8
- permeability [3]: moderate
- solubility in ethanol ([3]; ethanol): sparingly soluble
- solubility in isopropyl acetate ([3]; isopropyl acetate): sparingly soluble
- pKa ([3]; ref 5): 9.7
- Biopharmaceutical Classification System (BCS) class ([3]; ref 7): Class II
- Biopharmaceutical Classification System (BCS) class ([3]; ref 8): Class IV
- solubility in water ([3]; water): practically insoluble
